Test results as given in US11185517B2, “Pharmaceutical composition for treatment or remission of chronic myelogenous leukemia” (Delta-Fly Pharma, Inc., priority 2016, dated 2021).

Tested on: patient with chronic myelogenous leukemia
Experiment: Administration of Tasigna (nilotinib) to the patient with chronic myelogenous leukemia
Type: in vivo, human
Conditions: CML patient
Procedure: To a patient with chronic myelogenous leukemia, Tasigna (registered trademark) (nilotinib) was administered from Jan. 9, 2014.
The initially administered Tasigna (registered trademark) (nilotinib) had been developed as a therapeutic agent for the transitional stage of chronic myelogenous leukemia from the chronic stage to the acute stage.

## Cc1cn(-c2cc(NC(=O)c3ccc(C)c(Nc4nccc(-c5cccnc5)n4)c3)cc(C(F)(F)F)c2)cn1 [Tasigna, nilotinib]
Considered at the acute stage
  therapeutic effect: no therapeutic effect
Administration stopped after 5 days
  adverse effects: strong adverse effects were observed
